One assay addresses T1, recombinant USP1 protein (Homo sapiens, UniProt O94782, DEL125-138/DEL229-408/DEL608-737).
T1 sequence (O94782 with tags, fused parts or gaps DEL125-138/DEL229-408/DEL608-737): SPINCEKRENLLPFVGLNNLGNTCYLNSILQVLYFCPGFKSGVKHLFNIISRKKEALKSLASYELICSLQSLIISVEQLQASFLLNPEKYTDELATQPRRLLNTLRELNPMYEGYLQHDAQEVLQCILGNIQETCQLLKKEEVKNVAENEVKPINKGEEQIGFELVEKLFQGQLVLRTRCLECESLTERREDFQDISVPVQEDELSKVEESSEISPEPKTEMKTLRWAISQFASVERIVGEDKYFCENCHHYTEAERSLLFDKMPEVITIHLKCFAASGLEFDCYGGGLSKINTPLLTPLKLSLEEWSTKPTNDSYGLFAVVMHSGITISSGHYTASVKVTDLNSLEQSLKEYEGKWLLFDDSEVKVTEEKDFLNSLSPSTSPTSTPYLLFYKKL
Briefly: Binding affinity to recombinant USP1 protein by differential scanning fluorimetry. The note with it: compound 100 µM; 0.03 mg/mL USP1 (Δ1-66, Δ125-138, Δ229-408, Δ608-737); Tm with compound minus Tm with DMSO; read-out: ΔTm (°C). In outline:
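USP1 (Δ1-66, Δ125-138, Δ229-408, Δ608-737) at 0.03 mg/mL with dye in 50 mM Tris-HCl pH 8.0, 150 mM NaCl, 2% glycerol, 1 mM DTT; compounds at 100 µM final. Tm read on real-time PCR instrument; ΔTm = Tm with compound minus Tm with DMSO.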
Background: DSF heats the sample and reads unfolding from a dye or from intrinsic fluorescence.

The next assay deals with UWB1.289 cells. Briefly: Cell proliferation inhibitory activity in BRCA1/2-mutant or HRD-positive cells (Cell Titer-Glo). The assay is classed as cell-based. The note with it: UWB1289; UWB1.289 cells, 144 hours after compound treatment, Cell Titer-Glo, 1.5 nM to 10 µM; read-out: GI50 UWB1.289 BRCA1 mut. An outline of the steps: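 UWB1.289 cells (1,000/well) in 50% MEBM/50% RPMI1640 exposed to […], final 1.5 nM to 10 µM, for 144 h at 37 °C. Viable cells measured by CellTiter-Glo luminescence; GI50 calculated.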
Background: Cellular ATP, detected with luciferase, serves as a proxy for viable cell number.

The ΔTm is the shift of the melting midpoint relative to a reference. As a reminder, the GI50 is the concentration that inhibits growth by half.

As to `CNCCNC(=O)c1cc2cnc(-c3c(OC)ncnc3C3CC3)nc2n1Cc1ccc(-c2nc(C(F)(F)F)cn2C(C)C)cc1` [Example 143, 2-(4-cyclopropyl-6-methoxypyrimidin-5-yl)-7-(4-(1-isopropyl-4-(trifluoromethyl)-1H-imidazol-2-yl)benzyl) -N-(2-(methylamino)ethyl)-7H-pyrrolo[2,3-d]pyrimidine-6-carboxamide], the ΔTm at 100 µM at recombinant USP1 protein is above 5 °C. Besides, the GI50 in the assay on UWB1.289 cells lay in the range of 0.1 to 0.5 µM.

On to `COc1ncnc(C2CC2)c1-c1ncc2cc(C(=O)NCC3(CO)CC3)n(Cc3ccc(-c4nc(C(F)(F)F)cn4C(C)C)cc3)c2n1` [Example 7, 2-(4-cyclopropyl-6-methoxypyrimidin-5-yl)-N-((1-(hydroxymethyl)cyclopropyl)methyl)-7-(4-(1-isopropyl-4-(trifluoromethyl)-1H-imidazol-2-yl)benzyl)-7H-pyrrolo[2,3-d]pyrimidine-6-carboxamide], for which the ΔTm at 100 µM at recombinant USP1 protein is above 5 °C. The GI50 in the assay on UWB1.289 cells was below 0.1 µM.

Regarding `COC[C@H](C)NC(=O)c1cc2cnc(-c3c(OC)ncnc3C3CC3)nc2n1Cc1ccc(-c2nc(C(F)(F)F)cn2C(C)C)cc1` [Example 23, (S)-2-(4-cyclopropyl-6-methoxypyrimidin-5-yl)-7-(4-(1-isopropyl-4-(trifluoromethyl)-1H-imidazol-2-yl)benzyl)-N-(1-methoxypropan-2-yl)-7H-pyrrolo[2,3-d]pyrimidine-6-carboxamide], the ΔTm at 100 µM at recombinant USP1 protein is above 5 °C. In addition, the GI50 in the assay on UWB1.289 cells is below 0.1 µM.

On to `COc1ncnc(C2CC2)c1-c1ncc2cc(C(=O)NC3(C)CC3)n(Cc3ccc(-c4nc(C(F)(F)F)cn4C(C)C)cc3)c2n1` [Example 79, 2-(4-cyclopropyl-6-methoxypyrimidin-5-yl)-7-(4-(1-isopropyl-4-(trifluoromethyl)-1H-imidazol-2-yl)benzyl)-N-(1-methylcyclopropyl)-7H-pyrrolo[2,3-d]pyrimidine-6-carboxamide], for which the thermal shift (ΔTm) at 100 µM on recombinant USP1 protein is above 5 °C. Moreover, the GI50 in the assay with UWB1.289 cells was in the range of 0.1 to 0.5 µM.

For `COc1ncnc(C2CC2)c1-c1ncc2cc(C(=O)NCC(C)(C)O)n(Cc3ccc(-c4nc(C(F)(F)F)cn4C(C)C)cc3)c2n1` [Example 61, 2-(4-cyclopropyl-6-methoxypyrimidin-5-yl)-N-(2-hydroxy-2-methylpropyl)-7-(4-(1-isopropyl-4-(trifluoromethyl)-1H-imidazol-2-yl)benzyl)-7H-pyrrolo[2,3-d]pyrimidine-6-carboxamide], the ΔTm at 100 µM on recombinant USP1 protein is above 5 °C. The GI50 with UWB1.289 cells was below 0.1 µM.

Consider `COc1ncnc(C2CC2)c1-c1ncc2cc(C(=O)NCC3CCN(C)CC3)n(Cc3ccc(-c4nc(C(F)(F)F)cn4C(C)C)cc3)c2n1` [Example 87, 2-(4-cyclopropyl-6-methoxypyrimidin-5-yl)-7-(4-(1-isopropyl-4-(trifluoromethyl)-1H-imidazol-2-yl)benzyl)-N-((1-methylpiperidin-4-yl)methyl)-7H-pyrrolo[2,3-d]pyrimidine-6-carboxamide], for which the shift in melting temperature (ΔTm) at 100 µM at recombinant USP1 protein is above 5 °C. Also, the GI50 with UWB1.289 cells is 0.1 to 0.5 µM.

As for `COc1ncnc(C2CC2)c1-c1ncc2cc(C(=O)N[C@@H]3CCC[C@H]3N(C)C)n(Cc3ccc(-c4nc(C(F)(F)F)cn4C)cc3)c2n1` [Example 168, 2-(4-cyclopropyl-6-methoxypyrimidin-5-yl)-N-((1R,2R)-2-(dimethylamino)cyclopentyl)-7-(4-(1-methyl-4-(trifluoromethyl)-1H-imidazol-2-yl)benzyl)-7H-pyrrolo[2,3-d]pyrimidine-6-carboxamide], at recombinant USP1 protein, the ΔTm at 100 µM is above 5 °C. Moreover, in the assay with UWB1.289 cells, the GI50 was below 0.1 µM.

With `COc1ncnc(C2CC2)c1-c1ncc2cc(C(=O)NCC(C)C)n(Cc3ccc(-c4nc(C(F)(F)F)cn4C(C)C)cc3)c2n1` [Example 114, 2-(4-cyclopropyl-6-methoxypyrimidin-5-yl)-N-isobutyl-7-(4-(1-isopropyl-4-(trifluoromethyl)-1H-imidazol-2-yl)benzyl)-7H-pyrrolo[2,3-d]pyrimidine-6-carboxamide], the ΔTm at 100 µM on recombinant USP1 protein was above 5 °C. Also, the concentration for 50% growth inhibition (GI50) with UWB1.289 cells is below 0.1 µM.

With `CNC(=O)c1cc2cnc(-c3c(OC)ncnc3C3CC3)nc2n1Cc1ccc(-n2nc(C(F)(F)F)cc2-c2ccco2)cc1` [Example 198, 2-(4-cyclopropyl-6-methoxypyrimidin-5-yl)-7-(4-(5-(furan-2-yl)-3-(trifluoromethyl)-1H-pyrazol-1-yl)benzyl)-N-methyl-7H-pyrrolo[2,3-d]pyrimidine-6-carboxamide], the ΔTm at 100 µM at recombinant USP1 protein was above 5 °C. Also, the concentration for 50% growth inhibition (GI50) in the assay on UWB1.289 cells fell in the range of 0.1 to 0.5 µM.

For `COc1ncnc(C2CC2)c1-c1ncc2cc(C(=O)NCCN(C)C)n(Cc3ccc(-c4nc(C(F)(F)F)cn4C(C)C)cc3)c2n1` [Example 12, 2-(4-cyclopropyl-6-methoxypyrimidin-5-yl)-N-(2-(dimethylamino)ethyl)-7-(4-(1-isopropyl-4-(trifluoromethyl)-1H-imidazol-2-yl)benzyl)-7H-pyrrolo[2,3-d]pyrimidine-6-carboxamide], on recombinant USP1 protein, the ΔTm at 100 µM is above 5 °C. For the same compound, the GI50 with UWB1.289 cells fell in the range of 0.1 to 0.5 µM.

In the case of `CNC(=O)c1cc2cnc(-c3c(OC(C)C)ncnc3C3CC3)nc2n1Cc1ccc(-c2nc(C(F)(F)F)cn2C(C)C)cc1` [Example 119, 2-(4-cyclopropyl-6-isopropoxypyrimidin-5-yl)-7-(4-(1-isopropyl-4-(trifluoromethyl)-1H-imidazol-2-yl)benzyl)-N-methyl-7H-pyrrolo[2,3-d]pyrimidine-6-carboxamide], on recombinant USP1 protein, the ΔTm at 100 µM was above 5 °C. Also, the 50% growth inhibitory concentration (GI50) with UWB1.289 cells is below 0.1 µM.

As to `COc1ncnc(C2CC2)c1-c1ncc2cc(C(=O)NC3CCS(=O)(=O)C3)n(Cc3ccc(-c4nc(C(F)(F)F)cn4C(C)C)cc3)c2n1` (stereo not drawn) [Example 78, 2-(4-cyclopropyl-6-methoxypyrimidin-5-yl)-N-(1,1-dioxidotetrahydrothiophen-3-yl)-7-(4-(1-isopropyl-4-(trifluoromethyl)-1H-imidazol-2-yl)benzyl)-7H-pyrrolo[2,3-d]pyrimidine-6-carboxamide], the ΔTm at 100 µM at recombinant USP1 protein was above 5 °C. The GI50 in the assay on UWB1.289 cells fell in the range of 0.1 to 0.5 µM.

With `CCN(CC)C(=O)c1cc2cnc(-c3c(OC)ncnc3C3CC3)nc2n1Cc1ccc(-c2nc(C(F)(F)F)cn2C(C)C)cc1` [Example 42, 2-(4-cyclopropyl-6-methoxypyrimidin-5-yl)-N,N-diethyl-7-(4-(1-isopropyl-4-(trifluoromethyl)-1H-imidazol-2-yl)benzyl)-7H-pyrrolo[2,3-d]pyrimidine-6-carboxamide], on recombinant USP1 protein, the ΔTm at 100 µM is above 5 °C. In the assay with UWB1.289 cells, the concentration for 50% growth inhibition (GI50) was 0.1 to 0.5 µM.

Take `COCC1CN(C(=O)c2cc3cnc(-c4c(OC)ncnc4C4CC4)nc3n2Cc2ccc(-c3nc(C(F)(F)F)cn3C(C)C)cc2)C1` [Example 71, (2-(4-cyclopropyl-6-methoxypyrimid in-5-yl)-7-(4-(1-isopropyl-4-(trifluoromethyl)-1H-imidazol-2-yl)benzyl)-7H-pyrrolo[2,3-d]pyrimidin-6-yl) (3-(methoxymethyl)azetidin-1-yl)methanone]: the thermal shift (ΔTm) at 100 µM at recombinant USP1 protein was above 5 °C. For the same compound, in the assay with UWB1.289 cells, the GI50 is below 0.1 µM.

`CNC(=O)c1cc2cnc(-c3cccc4c3N(C)CC4)nc2n1Cc1ccc(-c2nc(C(F)(F)F)cn2C)cc1` [Example 193, N-methyl-7-(4-(1-methyl-4-(trifluoromethyl)-1H-imidazol-2-yl)benzyl)-2-(1-methylindolin-7-yl)-7H-pyrrolo[2,3-d]pyrimidine-6-carboxamide]: the shift in melting temperature (ΔTm) at 100 µM at recombinant USP1 protein was below 5 °C. Besides, the 50% growth inhibitory concentration (GI50) in the assay on UWB1.289 cells was below 0.1 µM.

As to `CNC(=O)c1cc2cnc(-c3c(OC)ncnc3C3CC3)nc2n1Cc1ccc(-c2nc(C(F)(F)F)cn2[C@H]2CCN(C)C[C@@H]2F)cc1` [Example 189, 2-(4-cyclopropyl-6-methoxypyrimidin-5-yl)-7-(4-(1-((3S,4S)-3-fluoro-1-methylpiperidin-4-yl)-4-(trifluoromethyl)-1H-imidazol-2-yl)benzyl) -N-methyl-7H-pyrrolo [2,3-d]pyrimidine-6-carboxamide], the ΔTm at 100 µM on recombinant USP1 protein is above 5 °C. The 50% growth inhibitory concentration (GI50) in the assay on UWB1.289 cells was below 0.1 µM.

For `COc1ncnc(C2CC2)c1-c1ncc2cc(C(=O)NC[C@@H](O)CO)n(Cc3ccc(-c4nc(C(F)(F)F)cn4C)cc3)c2n1` [Example 176, (R) -2-(4-cyclopropyl-6-methoxypyrimidin-5-yl)-N-(2,3-dihydroxypropy 1)-7-(4-(1-methyl-4-(trifluoromethyl)-1H-imidazol-2-yl)benzyl)-7H-pyrrolo[2,3-d]pyrimidine-6-carboxamide], the shift in melting temperature (ΔTm) at 100 µM on recombinant USP1 protein is above 5 °C. Further, the concentration for 50% growth inhibition (GI50) in the assay on UWB1.289 cells lay in the range of 0.1 to 0.5 µM.

On to `CNC(=O)c1cc2cnc(-c3cccnc3C(C)C)nc2n1Cc1ccc(-c2nc(C(F)(F)F)cn2C(C)C)cc1` [Example 134, 7-(4-(1-isopropyl-4-(trifluoromethyl)-1H-imidazol-2-yl)benzyl)-2-(2-isopropylpyridin-3-yl)-N-methyl-7H-pyrrolo[2,3-d]pyrimidine-6-carboxamide], for which the thermal shift (ΔTm) at 100 µM on recombinant USP1 protein is above 5 °C. Moreover, in the assay on UWB1.289 cells, the concentration for 50% growth inhibition (GI50) was below 0.1 µM.

These data come from patent publication EP4806898A1, “HETEROARYL DERIVATIVE COMPOUND AND USE THEREOF” (Voronoi Inc., priority 2023, dated 2025).
